{"source": "patent US8080539B2", "about": "“Method of treating human preeclampsia employing resibufagenin” (Scott and White Healthcare, priority 2004, dated 2011)", "key": {"[1]": {"test_system": "pregnant rats", "experiment": "Blood pressure (tail cuff) in pregnant rats made hypertensive with MBG, then treated with RBG", "type": "in vivo, rat", "experimental": "In order to confirm the effectiveness of RBG, experiments were performed. In the experiment, a group of four pregnant rats was provided with a blood pressure cuff on their tails in order to determine the base line blood pressure as shown in the table. In order to create hypertension, MBG was administered to the rats.\nA dosage of approximately 7 mg per kg of rat weight with the rats weighing in the range of about 200-250 g was employed daily in order to determine the effectiveness of resibufagenin in the treatment of preeclampsia. The dosage was administered intraperitonially and the rats monitored after about three to four days of treatment. The MBG and RBG were administered in a suitable vehicle such as dimethylsulfoxide (DMSO)."}, "[2]": {"test_system": "vessels from preeclamptic rats", "experiment": "Perfusion of dissected vessels from preeclamptic rats with marinobufagenin", "design": "species or system rat", "details": "vessels from preeclamptic rats perfused with marinobufagenin; average", "source_text": "(§1) It is elevated substantially more in preeclamptic rats."}, "[3]": {"test_system": "vessels from normal pregnant animals or rats", "experiment": "Perfusion of dissected vessels from normal pregnant rats with marinobufagenin", "design": "species or system rat", "details": "vessels from normal pregnant rats perfused with marinobufagenin", "source_text": "as §1"}, "[4]": {"test_system": "cellular systems", "details": "cited from earlier work"}}, "note": "“And” between values parts separate entries of the source, which are not always exact repeats. Equal entries are not always repeated.", "data": [{"compound": "C[C@]12CC[C@H](O)C[C@@]1(O)CC[C@@H]1[C@@H]2CC[C@]2(C)[C@@H](c3ccc(=O)oc3)C[C@H]3O[C@]132", "note": "[MBG, marinobufagenin]", "values": [{"measurement": "BP after MBG", "setting": "[1]; individual pregnant rats, tail blood pressure cuff, MBG administered to create hypertension", "value": "125 mmHg and 130 mmHg and 115 mmHg and 135 mmHg"}, {"measurement": "constriction of vessels as compared with control", "setting": "[2]", "value": "about 36%"}, {"measurement": "constriction of vessels", "setting": "[3]", "value": "do not constrict"}]}, {"compound": "C[C@]12CC[C@H](O)C[C@H]1CC[C@@H]1[C@@H]2CC[C@]2(C)[C@@H](c3ccc(=O)oc3)C[C@H]3O[C@]132", "note": "[RBG, Resibufagenin]", "values": [{"measurement": "change in blood pressure after treatment with RBG", "setting": "[1]; all four pregnant rats, approximately 7 mg per kg daily intraperitoneally, about three to four days", "value": "substantial reduction in blood pressure"}, {"measurement": "BP after RBG", "setting": "[1]; individual pregnant rats made hypertensive with MBG, RBG approximately 7 mg per kg daily intraperitoneally in DMSO, after about three to four days of treatment", "value": "95 mmHg and 120 mmHg and 110 mmHg and 105 mmHg"}, {"measurement": "biological effect in cellular systems", "setting": "[4]", "value": "no biological effect"}]}]}
